From ChEMBL document CHEMBL2029220, “Oxaphosphinanes: new therapeutic perspectives for glioblastoma” (J Med Chem, 2012)
pEC50: −log10 of the molar value. The source made the active and inactive calls. The rule behind the calls is not given here.

Legend:
SF-268 = assay: Antiproliferative activity against human SF268 cells at 10 uM after 24 hrs by SRB assay; format: functional, cell-based
MDA-MB-231 [1] = assay: Antiproliferative activity against human MDA-MB-231 cells assessed as higher lowest toxic concentration after 48 hrs by MTT assay relative to control; format: functional
Huh-7 [2] = assay: Antiproliferative activity against human HuH7 cells at 10 uM after 48 hrs by MTT assay relative to control; format: functional
B16-F10 [3] = assay: Antiproliferative activity against mouse B16F10 cells assessed as higher lowest toxic concentration after 48 hrs by MTT assay relative to control; format: functional
C6 [4] = assay: Antiproliferative activity against rat C6 cells at 0.1 to 100 uM after 48 hrs by neutral red incorporation assay; format: functional, cell-based
B16-F10 [5] = assay: Antiproliferative activity against mouse B16F10 cells at 10 uM after 48 hrs by MTT assay relative to control; format: functional
C6 [6] = assay: Antiproliferative activity against rat C6 cells after 48 hrs by MTT assay; format: functional, cell-based; settings: C6, 48 h
DU-145 [7] = assay: Antiproliferative activity against human DU145 cells assessed as higher lowest toxic concentration after 48 hrs by MTT assay relative to control; format: functional
NCI-H522 = assay: Antiproliferative activity against human NCI-H522 cells at 10 uM after 24 hrs by SRB assay; format: functional, cell-based
MDA-MB-435 [8] = assay: Antiproliferative activity against human MDA-MB-435 cells at 10 uM after 48 hrs by MTT assay relative to control; format: functional
HOP-62 = assay: Antiproliferative activity against human HOP62 cells at 10 uM after 24 hrs by SRB assay; format: functional, cell-based
U-251 = assay: Antiproliferative activity against human U251 cells at 10 uM after 24 hrs by SRB assay; format: functional, cell-based
UO-31 = assay: Antiproliferative activity against human UO31 cells at 10 uM after 24 hrs by SRB assay; format: functional; settings: UO-31, 24 h, read-out: GI
C6 [9] = assay: Cytotoxicity against rat C6 cells at 10 uM after 1 hr by LDH Assay; format: functional, cell-based
C6 [10] = assay: Antiproliferative activity against rat C6 cells at 10 uM after 48 hrs by MTT assay relative to control; format: functional
A-431 [11] = assay: Antiproliferative activity against human A431 cells assessed as higher lowest toxic concentration after 48 hrs by MTT assay relative to control; format: functional
Caco-2 [12] = assay: Antiproliferative activity against human Caco2 cells at 10 uM after 48 hrs by MTT assay relative to control; format: functional
SK-OV-3 = assay: Antiproliferative activity against human SKOV3 cells at 10 uM after 24 hrs by SRB assay; format: functional, cell-based
MDA-MB-435 [13] = assay: Antiproliferative activity against human MDA-MB-435 cells assessed as higher lowest toxic concentration after 48 hrs by MTT assay relative to control; format: functional
LOX IMVI = assay: Antiproliferative activity against human LOXIMVI cells at 10 uM after 24 hrs by SRB assay; format: functional; settings: read-out: GI
A-431 [14] = assay: Antiproliferative activity against human A431 cells at 10 uM after 48 hrs by MTT assay relative to control; format: functional
C6 [15] = assay: Antiproliferative activity against rat C6 cells assessed as higher lowest toxic concentration after 48 hrs by MTT assay relative to control; format: functional
Huh-7 [16] = assay: Antiproliferative activity against human HuH7 cells assessed as higher lowest toxic concentration after 48 hrs by MTT assay relative to control; format: functional
DU-145 [17] = assay: Antiproliferative activity against human DU145 cells at 10 uM after 48 hrs by MTT assay relative to control; format: functional
MDA-MB-231 [18] = assay: Antiproliferative activity against human MDA-MB-231 cells at 10 uM after 48 hrs by MTT assay relative to control; format: functional
Caco-2 [19] = assay: Antiproliferative activity against human Caco2 cells assessed as higher lowest toxic concentration after 48 hrs by MTT assay relative to control; format: functional
MDA-MB-468 = assay: Antiproliferative activity against human MDA-MB-468 cells at 10 uM after 24 hrs by SRB assay; format: functional, cell-based
Caco-2 [20] = assay: Antiproliferative activity against human Caco2 cells at 1 uM after 48 hrs by MTT assay relative to control; format: functional
MDA-MB-435 [21] = assay: Antiproliferative activity against human MDA-MB-435 cells at 1 uM after 48 hrs by MTT assay relative to control; format: functional
[22] = Cytotoxicity against mouse astrocytes assessed as decrease in cell viability at 1 to 100 uM after 48 hrs by neutral red incorporation assay; format: cell-based; settings: astrocyte
A-431 [23] = assay: Antiproliferative activity against human A431 cells after 48 hrs by MTT assay; format: functional, cell-based; settings: A-431, 48 h
Huh-7 [24] = assay: Antiproliferative activity against human HuH7 cells after 48 hrs by MTT assay; format: functional, cell-based; settings: Huh-7, 48 h
C6 [25] = assay: Cytotoxicity against rat C6 cells assessed as decrease in cell index at 10 uM after 3 hrs; format: functional, cell-based
C6 [26] = assay: Cytotoxicity against rat C6 cells assessed as decrease in cell index at 25 uM after 3 hrs; format: functional, cell-based
MDA-MB-435 [27] = assay: Antiproliferative activity against human MDA-MB-435 cells after 48 hrs by MTT assay; format: functional, cell-based; settings: MDA-MB-435, 48 h
B16-F10 [28] = assay: Antiproliferative activity against mouse B16F10 cells at 1 uM after 48 hrs by MTT assay relative to control; format: functional
A-431 [29] = assay: Antiproliferative activity against human A431 cells at 1 uM after 48 hrs by MTT assay relative to control; format: functional
Caco-2 [30] = assay: Antiproliferative activity against human Caco2 cells after 48 hrs by MTT assay; format: functional, cell-based; settings: Caco-2, 48 h
Hs-578T = assay: Antiproliferative activity against human Hs 578T cells at 10 uM after 24 hrs by SRB assay; format: functional, cell-based
C6 [31] = assay: Cytotoxicity against rat C6 cells assessed as decrease in cell index at 1 uM after 3 hrs; format: functional, cell-based
[32] = Cytotoxicity against mouse astrocytes assessed as decrease in cell viability at 1 to 100 uM after 48 hrs by propidium iodide incorporation assay; format: cell-based; settings: astrocyte
SF-295 = assay: Antiproliferative activity against human SF295 cells at 10 uM after 24 hrs by SRB assay; format: functional, cell-based
B16-F10 [33] = assay: Antiproliferative activity against mouse B16F10 cells after 48 hrs by MTT assay; format: functional, cell-based; settings: B16-F10, 48 h
DU-145 [34] = assay: Antiproliferative activity against human DU145 cells at 1 uM after 48 hrs by MTT assay relative to control; format: functional, cell-based
C6 [35] = assay: Antiproliferative activity against rat C6 cells at 1 uM after 48 hrs by MTT assay relative to control; format: functional
SNB-75 = assay: Antiproliferative activity against human SNB75 cells at 10 uM after 24 hrs by SRB assay; format: functional, cell-based
C6 [36] = assay: Cytotoxicity against rat C6 cells assessed as decrease in cell index at 50 uM after 2 hrs; format: functional, cell-based
MDA-MB-231 [37] = assay: Antiproliferative activity against human MDA-MB-231 cells at 1 uM after 48 hrs by MTT assay relative to control; format: functional
C6 [38] = assay: Cytotoxicity against rat C6 cells assessed as decrease in cell index at 100 uM after 1 hr; format: functional, cell-based
C6 [39] = assay: Cytotoxicity against rat C6 cells assessed as decrease in cell index at 5 uM after 3 hrs; format: functional, cell-based
Huh-7 [40] = assay: Antiproliferative activity against human HuH7 cells at 1 uM after 48 hrs by MTT assay relative to control; format: functional
DU-145 [41] = assay: Antiproliferative activity against human DU145 cells after 48 hrs by MTT assay; format: functional, cell-based; settings: DU-145, 48 h
[42] = Cytotoxicity against mouse astrocytes assessed as decrease in cell viability at 1 to 100 uM after 48 hrs by Hoechst 33342 staining; format: cell-based; settings: astrocyte

For `O=[P@@]1(c2ccccc2)O[C@H](COCc2ccccc2)[C@@H](OCc2ccccc2)[C@H](OCc2ccccc2)[C@@H]1O`, the “growth inhibition (GI)” value (SF-268) was “Active”, the Activity (MDA-MB-231 [1]) was 5 µM and the Activity (Huh-7 [2]) was 55%. For the same compound, the Activity (B16-F10 [3]) was 25 µM, the Activity (C6 [4]) was “Active” and the Activity (B16-F10 [5]) was “inactive”. For the same compound, the pEC50 (C6 [6]) was 4.62, the Activity (DU-145 [7]) was 1 µM and the “growth inhibition (GI)” value (NCI-H522) was “Active”. For the same compound, the Activity (MDA-MB-435 [8]) was 43%, the “growth inhibition (GI)” value (HOP-62) was “Active” and the “growth inhibition (GI)” value (U-251) was “Active”. For the same compound, the inhibition of growth at 10 µM (UO-31) was 50%, the Activity (C6 [9]) was “Active” and the Activity (C6 [10]) was 31%. The Activity (A-431 [11]) was 5 µM, the Activity (Caco-2 [12]) was 15% and the “growth inhibition (GI)” value (SK-OV-3) was “Active”. It also gave an Activity (MDA-MB-435 [13]) of 0.1 µM, an inhibition of growth at 10 µM (LOX IMVI) of 45% and an Activity (A-431 [14]) of 33%. It also gave an Activity (C6 [15]) of 0.1 µM, an Activity (Huh-7 [16]) of 0.1 µM and an Activity (DU-145 [17]) of 14%. The Activity (MDA-MB-231 [18]) was 18%, the Activity (Caco-2 [19]) was 5 µM and the “growth inhibition (GI)” value (MDA-MB-468) was “Active”.

Work on `O=[P@@]1(c2ccccc2)O[C@H](COCc2ccccc2)[C@@H](OCc2ccccc2)[C@H](OCc2ccccc2)[C@H]1O` yielded an Activity (Caco-2 [20]) of 10%, an Activity (MDA-MB-231 [1]) of 0.1 µM and an Activity (MDA-MB-435 [21]) of 22%. The Activity [22] was “Non-toxic”, the Activity (Huh-7 [2]) was 22% and the pEC50 (A-431 [23]) was 4.84. For the same compound, the pEC50 (Huh-7 [24]) was 4.52, the Activity (B16-F10 [3]) was 0.5 µM and the Activity (C6 [25]) was “inactive”. For the same compound, the Activity (C6 [26]) was “Active”, the pEC50 (MDA-MB-435 [27]) was 4.86 and the Activity (B16-F10 [28]) was 25%. The Activity (A-431 [29]) was 18%, the pEC50 (Caco-2 [30]) was 4.24 and the Activity (C6 [4]) was “Active”. For the same compound, the Activity (B16-F10 [5]) was 73%, the pEC50 (C6 [6]) was 6.28 and the Activity (DU-145 [7]) was 5 µM. The “growth inhibition (GI)” value (Hs-578T) was “Active”, the Activity (C6 [31]) was “inactive” and the Activity (MDA-MB-435 [8]) was 42%. For the same compound, the Activity [32] was “Non-toxic”, the Activity (C6 [9]) was “Active” and the Activity (C6 [10]) was 82%. For the same compound, the Activity (A-431 [11]) was 0.1 µM, the “growth inhibition (GI)” value (SF-295) was “Active” and the pEC50 (B16-F10 [33]) was 5.31. The Activity (DU-145 [34]) was “inactive”, the Activity (C6 [35]) was 63% and the “growth inhibition (GI)” value (SNB-75) was “Active”. The Activity (Caco-2 [12]) was 43%, the Activity (C6 [36]) was “Active” and the Activity (MDA-MB-231 [37]) was 17%. For the same compound, the Activity (MDA-MB-435 [13]) was 0.001 µM, the Activity (C6 [38]) was “Active” and the Activity (A-431 [14]) was 32%. The Activity (C6 [39]) was “Active”, the Activity (Huh-7 [40]) was 16% and the Activity (C6 [15]) was 0.001 µM. For the same compound, the Activity (Huh-7 [16]) was 0.1 µM, the Activity (DU-145 [17]) was 40% and the pEC50 (DU-145 [41]) was 4.19. The Activity [42] was “Non-toxic”, the Activity (MDA-MB-231 [18]) was 30% and the Activity (Caco-2 [19]) was 0.5 µM.
